Measured values: patent US20240102100A1, “RIBOSOMAL RNAS 2'O-M[…] A NOVEL SOURCE OF […] FOR DIAGNOSIS, PROGNOSIS AND THERAPY OF CANCERS” (CENTRE LEON BERARD, priority 2020, published 2024)

Tests used:
hMEC epithelial cells = assay: Cell viability monitored in real time (Incucyte), cell confluence as read-out, with increasing concentration of anisomycin; type: cell-based, human; conditions: real-time monitoring
From the text: (§1) Cell lines and cell viability. The epithelial and mesenchymal cellular models were kindly provided by Alain Puisieux's team (17). Briefly, the human epithelial mammary cell (hMECs) were used to derive EMT-related cellular models. The hMEC cell line corresponds to epithelial cells (Lonza) that were immortalized by lentiviral transduction allowing hTERT overexpression. The hMEC cell line was then transduced with lentiviral vector to induce stable over-expression of the murine EMT-TF ZEB1 and to promote EMT and thus generates the hMEC-ZEB1 mesenchymal cell line. The hMEC cellular models were maintained in DM EM-F12 (Gibo) supplemented with 0.5 μg/ml hydrocortisone, 10 ng/ml EGF, […] insulin, 10% fetal calf serum, 100 μg/ml streptomycin and 100 units/ml of penicillin. Selective pressure was maintained with puromycin for hMEC-ZEB1. Cell viability was monitored in real-time using Incucyte Live-Cell analysis system (Statorius). Cells were plated in 96-well plates without selective pressure for 24 hrs before addition of the anisomycin antibiotic (range concentration 2-200 nM). DMSO was used as negative control.
(§2) At day 6, difference in cell viability was determined using cell confluence as a read-out.

[1] = tested on: hMEC-ZEB1 mesenchymal cells; assay: as above; type: cell-based, human
From the text: as §1, §2

Compound: COc1ccc(C[C@H]2NC[C@H](O)[C@H]2OC(C)=O)cc1 [anisomycin]
- change in cell morphology (hMEC epithelial cells): no change in cell morphology was observed
- sensitivity to anisomycin treatment (cell viability, cell confluence as read-out) ([1]; hMEC-ZEB1 mesenchymal cells compared with hMEC epithelial cells, anisomycin 2-200 nM, day 6): more sensitive
- change in cell morphology ([1]; mesenchymal cells, increasing concentration of anisomycin, real-time monitoring): no change in cell morphology was observed
